According to paper PMC12746157, “Light-Regulated Agonists Spatiotemporally Activating the Vitamin D Receptor Mitigate Psoriasis-like Inflammation in Mice without Inducing Hypercalcemia” (ACS Central Science, 2025):
Entries after “also recorded” stand apart in the source; their conditions may differ.

Legend:
[1] = UV-Vis absorption spectra and thermal relaxation of the cis isomers in DMSO; format: physicochemical; conditions: 60 μM in 100% DMSO, 37 °C; for λn−π* (cis): after illumination; for λπ–π* (trans): dark
Procedure: (§1) The UV–vis absorbance spectra of all molecules were measured in the dark and after the application of light of different wavelengths ranging from 365 to 770 nm (Figure A and Figures S1–S3). […] Consequently, violet/UV light below 405 nm efficiently promoted photoisomerization, which produced a dramatic decrease in the π-π* band and a significant increase in the n-π* band at around 445 nm (Table ). […] The proportion of molecules at the PSS in trans isomer upon constant illumination with light at 525 nm and cis at 365 nm was in general above 50%, reaching a remarkable >99% for compound 11d (Table and Figures S4 and S5). […] The greater stability of the trans isomer was consistent with previous quantum mechanical and molecular mechanics predictions. Measuring the photoisomerization properties of compound PhotoVDRM allowed us to determine the photoisomerization quantum yields of the compound by solving a differential equation for photoisomerization. We used MATLAB to perform regression and arrive at the following photoisomerization quantum yields: ϕ365 nm (trans) = 0.0427, ϕ365 nm (cis) = 0.0501, ϕ470 nm (trans) = 0.1857, and ϕ470 nm (cis) = 0.2281 (Figure S9). Compound PhotoVDRM was also evaluated in aqueous buffer used for pharmacological experiments (0.5% DMSO) showing a thermal relaxation of 3 h, almost 7 times faster than in pure DMSO (Figure B). […] A deeper photocharacterization of PhotoVDRM allowed us to measure the kinetics of photoconversion upon constant illumination with two wavelengths and three light intensities (Figure D and Figure S10). […] Indeed, with LED devices producing light at intensities as low as 0.05 mW/mm^2 we were able to transform trans to cis in around 15.5 s. This time was reduced to 6 and 2 s when the light intensity was increased to 0.15 and 0.75 mW/mm^2. […] Therefore, we proceeded to test the ability of the chemical library to activate the VDR under different light conditions.
2. Photochemical characterization. […]
(200 µL per well). The absorption spectra were recorded from 300 to 600 nm with 2 nm fixed intervals using a Tecan Spark 20M Multimode microplate reader. Initial measurements were performed in the dark, followed by spectra acquired immediately after each 3 min period of light irradiation at different wavelengths using 96-well LED array plates (LEDA Teleopto). Theoretical absorbance spectra corresponding to the pure cis isomer (100%) of each compound were calculated in order to obtain the theoretical percentage of cis isomer at each wavelength, according to the method described by Ernst Fischer (1967). Thermal relaxation kinetics of the experimental cis isomers were assessed in quartz cuvettes (10 mm optical path) containing freshly prepared 50 […]
Dark state absorbance at 365 nm was recorded at 37
ºC using a ThermoFisher Evolution 350 UV-Vis spectrophotometer. Samples were then irradiated for 3 minutes at 365 nm with a CoolLED pE-4000 light sourceto induce trans → cis photoisomerization.. Absorbance at 365 nm was subsequently monitored over 48 h: every 15 min during the first 24 h, and every 60 min during the following 24 h. Relaxation half-lives were determined by fitting the absorbance-time data to a […] exponential model using GraphPad Prism v10.4.1. […]

[2] = Photostationary state (PSS) determination by HPLC-MS in aqueous assay buffer; format: physicochemical; conditions: for PSS365 (% cis) / PSS525 (%trans): 21 °C, HPLC-MS, 60 μM, aqueous buffer 0.6% DMSO; for PSS365 (% cis): 3 min illumination 365 nm; for PSS525 (%trans): 3 min illumination 525 nm
Procedure: as §1
Photostationary state (PSS) determination. In a transparent vial, solutions of the compounds were prepared at a concentration of 60 µM from a 10 mM stock in DMSO, using the assay buffer of pharmacological experiments for dilution. Prior to illumination, a volume of 500 µL was transferred to an amber vial for the "dark" sample. The same procedure was repeated after exposing the transparent vial containing the 60 µM solutions to the following light conditions:
365nm for 3 minutes and 525nm for 3 minutes. […]
difference on isomeric proportions. For each sample, 20 µL was analyzed by HPLC-MS, and the isomer ratios were determined at the isosbestic point.
Isosbestic point determination. The solvent percentage for the elution of each isomer were calculated based on their retention times from HPLC analysis. Subsequently, 50 µM solutions were prepared from the 10 mM DMSO stock solution of each compound using the previously determined HPLC solvent mixture. The UV spectrum for each solution was recorded after illumination at 365 nm (30 seconds), at 400 nm (30 seconds), and at 525 nm (30 seconds). The spectra were overlaid to identify the isosbestic point of maximum intensity.
HPLC conditions. Analytical HPLC was performed on a Thermo Ultimate 3000SD (Thermo Scientific Dionex) coupled to a PDA detector and Mass Spectrometer LTQ XL ESI-ion trap (Thermo Scientific). Cromatographic separations were performed using a ZORBAX Eclipse Plus C18 (4.6 x 150mm; 3.5µm) column. The mobile phase consisted of an isocratic mixture of solvent A (water with 0.05% of formic acid) and solvent B (acetonitrile with 0.05% formic acid) at a 3:7 ratio for compounds 10a-d and a 2:3 ratio for compounds 11a-d and 12a-d. […]

VDR = VDR (Homo sapiens, UniProt P11473); assay: Luminescent proximity homogeneous assay (AlphaScreen): interaction of purified VDR, RxR and TRAP220 coactivator fragment; format: biochemical; conditions: UVB narrowband light (315 nm) and visible illumination at 420 nm
[3] = Serum total calcium measurement in mice (Arsenazo III); format: in vivo; conditions: after treatment i.p. days 2-4 (LSN2148936 0.005 mg/kg, PhotoVDRM 0.5 mg/kg), 420 or 520 nm
[4] = Photoisomerization quantum yield (MATLAB regression); format: physicochemical
Procedure: as §1

Chain of VDR (P11473 whole entry, the tested form may be a part): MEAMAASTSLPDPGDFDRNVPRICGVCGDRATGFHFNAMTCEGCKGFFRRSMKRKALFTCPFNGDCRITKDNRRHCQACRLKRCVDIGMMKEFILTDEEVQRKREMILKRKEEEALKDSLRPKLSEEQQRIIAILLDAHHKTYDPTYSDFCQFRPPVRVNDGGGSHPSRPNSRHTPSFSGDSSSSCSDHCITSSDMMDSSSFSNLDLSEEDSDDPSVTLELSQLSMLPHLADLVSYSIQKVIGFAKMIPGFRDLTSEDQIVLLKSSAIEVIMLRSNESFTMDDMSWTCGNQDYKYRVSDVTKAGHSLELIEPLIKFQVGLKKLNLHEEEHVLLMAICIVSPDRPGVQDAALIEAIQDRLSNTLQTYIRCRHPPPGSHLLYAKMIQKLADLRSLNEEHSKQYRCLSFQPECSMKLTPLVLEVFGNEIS
Chain of VDR (P19793 whole entry partner, the tested form may be a part): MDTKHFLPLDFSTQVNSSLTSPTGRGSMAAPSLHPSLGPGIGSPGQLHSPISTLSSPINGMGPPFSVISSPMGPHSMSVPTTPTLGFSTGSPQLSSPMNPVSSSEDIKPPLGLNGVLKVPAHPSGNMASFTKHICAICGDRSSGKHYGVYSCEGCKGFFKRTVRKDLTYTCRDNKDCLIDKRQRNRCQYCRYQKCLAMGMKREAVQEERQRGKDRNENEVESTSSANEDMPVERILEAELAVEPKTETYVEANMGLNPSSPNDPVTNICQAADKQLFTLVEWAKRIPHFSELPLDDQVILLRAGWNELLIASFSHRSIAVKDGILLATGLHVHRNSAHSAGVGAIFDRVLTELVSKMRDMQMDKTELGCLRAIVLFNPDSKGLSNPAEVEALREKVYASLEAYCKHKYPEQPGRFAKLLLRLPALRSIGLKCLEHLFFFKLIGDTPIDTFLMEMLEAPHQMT
Chain of VDR (Q15648 whole entry partner, the tested form may be a part): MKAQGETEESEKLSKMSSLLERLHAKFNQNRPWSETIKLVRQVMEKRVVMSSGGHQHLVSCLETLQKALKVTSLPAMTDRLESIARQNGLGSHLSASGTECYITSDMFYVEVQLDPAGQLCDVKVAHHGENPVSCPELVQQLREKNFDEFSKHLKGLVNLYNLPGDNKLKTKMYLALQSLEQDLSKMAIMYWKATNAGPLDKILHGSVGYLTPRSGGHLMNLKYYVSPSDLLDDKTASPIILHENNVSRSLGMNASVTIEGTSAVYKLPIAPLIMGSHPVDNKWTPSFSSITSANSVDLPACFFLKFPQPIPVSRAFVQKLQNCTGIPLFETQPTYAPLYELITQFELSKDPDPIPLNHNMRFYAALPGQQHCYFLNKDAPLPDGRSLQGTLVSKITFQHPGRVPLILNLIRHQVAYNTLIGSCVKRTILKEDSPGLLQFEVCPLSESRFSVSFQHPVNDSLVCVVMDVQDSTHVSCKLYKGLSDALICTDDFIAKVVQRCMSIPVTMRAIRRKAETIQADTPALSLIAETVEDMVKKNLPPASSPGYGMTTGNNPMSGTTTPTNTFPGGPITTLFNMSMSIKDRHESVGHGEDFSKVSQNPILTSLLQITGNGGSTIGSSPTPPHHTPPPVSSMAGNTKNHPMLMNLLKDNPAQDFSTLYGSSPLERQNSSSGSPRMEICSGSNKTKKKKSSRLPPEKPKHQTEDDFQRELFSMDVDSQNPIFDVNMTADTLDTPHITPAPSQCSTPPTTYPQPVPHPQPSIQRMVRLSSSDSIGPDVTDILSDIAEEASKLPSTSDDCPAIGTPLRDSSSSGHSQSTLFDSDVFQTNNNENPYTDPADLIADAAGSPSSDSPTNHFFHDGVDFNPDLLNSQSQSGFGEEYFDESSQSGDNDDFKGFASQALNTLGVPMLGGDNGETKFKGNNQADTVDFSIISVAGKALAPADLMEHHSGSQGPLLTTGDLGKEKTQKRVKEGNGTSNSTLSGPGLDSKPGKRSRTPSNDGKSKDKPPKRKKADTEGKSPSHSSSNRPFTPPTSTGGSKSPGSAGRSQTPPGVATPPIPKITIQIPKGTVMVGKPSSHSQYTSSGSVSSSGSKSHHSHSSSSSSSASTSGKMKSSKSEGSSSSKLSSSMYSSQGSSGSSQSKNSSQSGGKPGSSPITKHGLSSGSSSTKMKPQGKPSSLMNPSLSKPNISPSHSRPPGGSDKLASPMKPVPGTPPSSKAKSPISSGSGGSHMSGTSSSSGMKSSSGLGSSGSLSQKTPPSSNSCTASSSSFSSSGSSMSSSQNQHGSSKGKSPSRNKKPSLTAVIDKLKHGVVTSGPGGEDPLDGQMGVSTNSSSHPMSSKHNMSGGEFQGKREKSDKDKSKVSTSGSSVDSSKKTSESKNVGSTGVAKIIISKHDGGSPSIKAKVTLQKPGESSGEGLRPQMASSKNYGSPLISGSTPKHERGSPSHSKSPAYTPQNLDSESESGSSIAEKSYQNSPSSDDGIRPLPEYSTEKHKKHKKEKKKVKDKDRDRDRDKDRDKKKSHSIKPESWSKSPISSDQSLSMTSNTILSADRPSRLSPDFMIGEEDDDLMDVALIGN

| t 1/2 (thermal relaxation of cis) [1] | λn−π* (cis) [1] | λπ–π* (trans) [1] | PSS365 (% cis) [2] | PSS525 (%trans) [2] | Structure (SMILES) | proportion of cis at PSS 460 nm ([2]; 460 nm, assay buffer (Figure S4D)) | modulation of activity by light (VDR) | effect on calcium homeostasis (serum total calcium) [3] | photoisomerization quantum yield ϕ365 nm (cis) ([4]; 365 nm, cis) | photoisomerization quantum yield ϕ365 nm (trans) ([4]; 365 nm, trans) | photoisomerization quantum yield ϕ470 nm (cis) ([4]; 470 nm, cis) | photoisomerization quantum yield ϕ470 nm (trans) ([4]; 470 nm, trans) |
| --- | --- | --- | --- | --- | --- | --- | --- | --- | --- | --- | --- | --- |
| 9.1 h | 440 nm | 366 nm | 94% | 74% | Cc1cc(/N=N/c2cccc(-c3ccc(C(=O)O)cc3)c2)ccc1OCC(O)C(C)(C)C (centres unmarked) [Compound 11a] |  |  |  |  |  |  |  |
| 9.3 h | 446 nm | 366 nm | 83% | 86% | COC(=O)c1ccc(-c2cccc(/N=N/c3ccc(OCC(O)C(C)(C)C)c(C)c3)c2)cc1 (centres unmarked) [Compound 10a] |  |  |  |  |  |  |  |
| 9.1 h | 444 nm | 364 nm | 80% | 87% | Cc1cc(/N=N/c2cccc(-c3ccc(CO)cc3)c2)ccc1OCC(O)C(C)(C)C (centres unmarked) [Compound 12a] |  |  |  |  |  |  |  |
| 7.6 h | 440 nm | 360 nm | 78% | 73% | COC(=O)c1ccc(-c2cccc(/N=N/c3ccc(OCC(O)C(C)(C)C)cc3C)c2)cc1 (centres unmarked) [Compound 10b] |  |  |  |  |  |  |  |
| 8.2 h | 438 nm | 360 nm | 88% | 81% | COC(=O)c1ccc(-c2cccc(/N=N/c3ccc(OCC(O)C(C)(C)C)cc3C)c2)c(C)c1 (centres unmarked) [Compound 10d] |  |  |  |  |  |  |  |

The remaining lines, values behind:

| Structure (SMILES) | t 1/2 (thermal relaxation of cis) [1] | λn−π* (cis) [1] | λπ–π* (trans) [1] | PSS365 (% cis) [2] | PSS525 (%trans) [2] | proportion of cis at PSS 460 nm ([2]; 460 nm, assay buffer (Figure S4D)) | modulation of activity by light (VDR) | effect on calcium homeostasis (serum total calcium) [3] | photoisomerization quantum yield ϕ365 nm (cis) ([4]; 365 nm, cis) | photoisomerization quantum yield ϕ365 nm (trans) ([4]; 365 nm, trans) | photoisomerization quantum yield ϕ470 nm (cis) ([4]; 470 nm, cis) | photoisomerization quantum yield ϕ470 nm (trans) ([4]; 470 nm, trans) |
| --- | --- | --- | --- | --- | --- | --- | --- | --- | --- | --- | --- | --- |
| Cc1cc(OCC(O)C(C)(C)C)ccc1/N=N/c1cccc(-c2ccc(CO)cc2)c1 (centres unmarked) [Compound 12b] | 6.8 h | 444 nm | 362 nm | 84% | 84% |  |  |  |  |  |  |  |
| COC(=O)c1ccc(-c2cccc(/N=N/c3ccc(OCC(O)C(C)(C)C)c(C)c3)c2)c(C)c1 (centres unmarked) [Compound 10c] | 12.5 h | 444 nm | 366 nm | 73% | 83% |  |  |  |  |  |  |  |
| Cc1cc(OCC(O)C(C)(C)C)ccc1/N=N/c1cccc(-c2ccc(CO)cc2C)c1 (centres unmarked) [Compound 12d] | 8.2 h | 446 nm | 362 nm | 88% | 82% |  |  |  |  |  |  |  |
| Cc1cc(OCC(O)C(C)(C)C)ccc1N=Nc1cccc(-c2ccc(C(=O)O)cc2)c1 (centres unmarked) [Compound 11b] | 20.5 h | 442 nm | 362 nm | 95% | 55% | 63% | modulated the activity | null impact; also recorded: without concomitant hypercalcemia | 0.0501 | 0.0427 | 0.2281 | 0.1857 |
| Cc1cc(/N=N/c2cccc(-c3ccc(C(=O)O)cc3C)c2)ccc1OCC(O)C(C)(C)C (centres unmarked) [Compound 11c] | 25.4 h | 444 nm | 364 nm | 96% | 84% |  |  |  |  |  |  |  |
| Cc1cc(OCC(O)C(C)(C)C)ccc1/N=N/c1cccc(-c2ccc(C(=O)O)cc2C)c1 (centres unmarked) [Compound 11d] | 17.7 h | 444 nm | 362 nm | >99% | 61% |  |  |  |  |  |  |  |
